Laboratory results as given in article PMC6768983, “Transcriptomic Identification and Biochemical Characterization of HmpA, a Nitric Oxide Dioxygenase, Essential for Pathogenesis of Vibrio vulnificus” (Frontiers in Microbiology, 2019).

Target: T1, VvHmpA (Vibrio vulnificus, UniProt Q8DCU2)
T1 construct: gene hmp; reconstituted with heme or FAD
Assay: FAD fluorometric assay after reconstitution
Assay type: binding
Details: 10 μM protein incubated with 80 μM FAD, 1 h, room temperature; stoichiometry, no affinity constant

T1 sequence (Q8DCU2 whole entry): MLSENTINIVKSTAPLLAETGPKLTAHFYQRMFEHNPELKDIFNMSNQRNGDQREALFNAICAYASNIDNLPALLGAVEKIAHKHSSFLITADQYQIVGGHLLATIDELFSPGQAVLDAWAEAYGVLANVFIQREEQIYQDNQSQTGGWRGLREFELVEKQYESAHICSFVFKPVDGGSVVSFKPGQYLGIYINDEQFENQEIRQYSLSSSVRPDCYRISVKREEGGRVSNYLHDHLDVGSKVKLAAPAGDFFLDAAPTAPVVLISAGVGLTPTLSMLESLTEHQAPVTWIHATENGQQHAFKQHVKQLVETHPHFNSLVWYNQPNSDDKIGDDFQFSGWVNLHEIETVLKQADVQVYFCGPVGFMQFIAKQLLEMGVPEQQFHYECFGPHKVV

## Cc1cc2nc3c(=O)[nH]c(=O)nc-3n(C[C@H](O)[C@H](O)[C@H](O)COP(=O)(O)OP(=O)(O)OC[C@H]3O[C@@H](n4cnc5c(N)ncnc54)[C@H](O)[C@@H]3O)c2cc1C [FAD]
  molecules of FAD per VvHmpA monomer: 0.92 ± 0.12 molecules per monomer
